As usually defined, the IC50 is the concentration that inhibits the measured activity by half.

This note sets out measurements from US10577363B2, “Substituted piperidine compounds” (EPIZYME, INC., priority 2014, dated 2020).

The target of assay [1] is T1, SMYD3 (Homo sapiens (Human), UniProt Q9H7B4). Put plainly: SMYD3 biochemical assay (SPA, 3H-SAM methylation of MEKK2 protein substrate). To be noted: read-out: SMYD3 Biochem IC50*. Put shortly: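 Full-length native human SMYD3 (E. coli-expressed, tags removed) preincubated with compounds 30 min at room temperature, then reaction started with 3H-SAM and GST-tagged MEKK2 protein in 25 mM Tris-Cl pH 8.0, 1 mM TCEP, 0.005% BSG, 0.005% Tween 20. Quenched with unlabelled SAM (100 uM final); 3H-MEKK2 counted by SPA.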
T1 sequence (Q9H7B4 whole entry): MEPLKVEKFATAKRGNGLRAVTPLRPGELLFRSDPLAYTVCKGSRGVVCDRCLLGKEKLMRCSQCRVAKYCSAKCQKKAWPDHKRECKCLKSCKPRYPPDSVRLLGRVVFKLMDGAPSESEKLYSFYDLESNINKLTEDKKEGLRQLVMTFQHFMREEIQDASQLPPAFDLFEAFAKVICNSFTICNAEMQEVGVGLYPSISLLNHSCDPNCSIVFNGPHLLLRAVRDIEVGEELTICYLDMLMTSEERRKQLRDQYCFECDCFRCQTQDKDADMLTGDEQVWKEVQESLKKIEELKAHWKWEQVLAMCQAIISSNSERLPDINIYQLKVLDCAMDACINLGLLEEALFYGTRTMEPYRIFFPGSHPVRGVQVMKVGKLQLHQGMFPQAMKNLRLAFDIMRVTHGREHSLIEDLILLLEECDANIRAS

Assay [2] has as its target T1, SMYD3. Put plainly: SMYD3 cell assay (Trimethyl-MEKK2 In-Cell Western in 293T/17 cells). Format: cell-based. The following applies: read-out: SMYD3 Cell IC50*. Put shortly:
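In-Cell Western ratio of trimethyl-Lys260 MEKK2 to anti-flag signal; percent inhibition from DMSO and maximum-inhibition controls, IC50 by non-linear regression, triplicates.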

Turning to `O=C(N[C@H]1C[C@H]2CC[C@@H](C1)N2S(=O)(=O)N1CC2CCC(C1)N2)c1cc(C2CC2)on1` [compound 817, N-((1R,3r,5S)-8-((3,8-diazabicyclo[3.2.1]octan-3-yl)sulfonyl)-8-azabicyclo[3.2.1]octan-3-yl)-5-cyclopropylisoxazole-3-carboxamide], the results for the IC50 in assay [1] and in assay [2] were 3.11 nM and 34.8 nM, respectively.

Turning to `CC(C)CN1CCC2(CC1)CN(S(=O)(=O)N1[C@@H]3CC[C@H]1C[C@@H](NC(=O)c1cc(C4CC4)on1)C3)C2` [compound 818, 5-cyclopropyl-N-((1R,3r,5S)-8-((7-isobutyl-2,7-diazaspiro[3.5]nonan-2-yl)sulfonyl)-8-azabicyclo[3.2.1]octan-3-yl)isoxazole-3-carboxamide], the IC50 is 3.13 nM in assay [1] and 55.4 nM in assay [2].

On to `C[C@H]1C[C@@H](NC(=O)c2cc(C3CC3)on2)CCN1S(=O)(=O)C[C@@H]1CCC[C@@H](N)C1` [compound 819, N-((2S,4S)-1-((((1R,3R)-3-aminocyclohexyl)methyl)sulfonyl)-2-methylpiperidin-4-yl)-5-cyclopropylisoxazole-3-carboxamide], for which the IC50 in assay [1] came to 3.2 nM; in assay [2] it was 124 nM.

On to `CN(CCO)C1CCN(S(=O)(=O)N2[C@@H]3CC[C@H]2C[C@@H](NC(=O)c2cc(C4CC4)on2)C3)CC1` [compound 820, 5-cyclopropyl-N-((1R,3r,5S)-8-((4-((2-hydroxyethyl)(methyl)amino)piperidin-1-yl)sulfonyl)-8-azabicyclo[3.2.1]octan-3-yl)isoxazole-3-carboxamide], for which the IC50 in assay [1] came out at 3.27 nM; in assay [2] it was 57.4 nM.

In the case of `CC(C)CCNC1CCN(S(=O)(=O)N2[C@@H]3CC[C@H]2C[C@@H](NC(=O)c2cc(C4CC4)on2)C3)CC1` [compound 821, 5-cyclopropyl-N-((1R,3r,5S)-8-((4-(isopentylamino)piperidin-1-yl)sulfonyl)-8-azabicyclo[3.2.1]octan-3-yl)isoxazole-3-carboxamide], the half-maximal inhibitory concentration (IC50) in assay [1] was 3.28 nM; in assay [2], 58.5 nM.

In the case of `CCN1C2CCC1CN(S(=O)(=O)N1[C@@H]3CC[C@H]1C[C@@H](NC(=O)c1cc(C4CC4)on1)C3)C2` [compound 822, 5-cyclopropyl-N-((1R,3r,5S)-8-((8-ethyl-3,8-diazabicyclo[3.2.1]octan-3-yl)sulfonyl)-8-azabicyclo[3.2.1]octan-3-yl)isoxazole-3-carboxamide], the IC50 is 3.44 nM in assay [1] and 43.7 nM in assay [2].

Turning to `C[C@H]1C[C@@H](NC(=O)c2cc(C3CC3)on2)CCN1S(=O)(=O)CC1CCC(N(C)C)C1` (stereo partly drawn) [compound 823, 5-cyclopropyl-N-((2S,4S)-1-(((3-(dimethylamino)cyclopentyl)methyl)sulfonyl)-2-memylpiperidin-4-yl)isoxazole-3-carboxamide], the results for the IC50 in assay [1] and in assay [2] were 3.5 nM and 67.2 nM, respectively.

`O=C(N[C@H]1C[C@H]2CC[C@@H](C1)N2S(=O)(=O)N1CC2(CCN(Cc3ccccc3)CC2)C1)c1cc(C2CC2)on1` [compound 824, N-((1R,3r,5S)-8-((7-benzyl-2,7-diazaspiro[3.5]nonan-2-yl)sulfonyl)-8-azabicyclo[3.2.1]octan-3-yl)-5-cyclopropylisoxazole-3-carboxamide]: the IC50 in assay [1] was determined as 3.87 nM; in assay [2] it was 80.4 nM.

Take `COCCN[C@H]1CC[C@H](S(=O)(=O)N2[C@@H]3CC[C@H]2C[C@@H](NC(=O)c2cc(C4CC4)on2)C3)CC1` [compound 825, 5-cyclopropyl-N-((1R,3R,5S)-8-(((1r,4R)-4-((2-methoxyemyl)amino)cyclohexyl)sulfonyl)-8-azabicyclo[3.2.1]octan-3-yl)isoxazole-3-carboxamide]: the IC50 stood at 3.91 nM in assay [1] and 55.3 nM in assay [2].

For `COCCN[C@H]1CC[C@@H](S(=O)(=O)N2[C@@H]3CC[C@H]2C[C@@H](NC(=O)c2cc(C4CC4)on2)C3)CC1` [compound 826, 5-cyclopropyl-N-((1R,3R,5S)-8-(((1s,4S)-4-((2-methoxyethyl)amino)cyclohexyl)sulfonyl)-8-azabicyclo[3.2.1]octan-3-yl)isoxazole-3-carboxamide], the figures for the IC50 in assay [1] and in assay [2] were 3.92 nM and 58.4 nM, respectively.

Take `C[C@H]1C[C@@H](NC(=O)c2cc(C3CC3)on2)CCN1S(=O)(=O)CC1CCCC(N)C1` (stereo partly drawn) [compound 827, N-((2S,4S)-1-(((3-aminocyclohexyl)methyl)sulfonyl)-2-methylpiperidin-4-yl)-5-cyclopropylisoxazole-3-carboxamide]: the IC50 in assay [1] turned out to be 4 nM; in assay [2], 72.7 nM.

For `C[C@H]1C[C@@H](NC(=O)c2cc(C3CC3)on2)CCN1S(=O)(=O)N1C2CNCC1C2` [compound 828, N-((2S,4S)-1-((3,6-diazabicyclo[3.1.1]heptan-6-yl)sulfonyl)-2-methylpiperidin-4-yl)-5-cyclopropylisoxazole-3-carboxamide], the 50% inhibitory concentration (IC50) in assay [1] was found to be 4.18 nM; in assay [2] it was 150 nM.

`CCNC1CCN(S(=O)(=O)N2CC[C@H](NC(=O)c3cc(C4CC4)on3)C[C@@H]2C)CC1` [compound 829, 5-cyclopropyl-N-((2S,4S)-1-((4-(ethylamino)piperidin-1-yl)sulfonyl)-2-methylpiperidin-4-yl)isoxazole-3-carboxamide]: the IC50 in assay [1] came out at 4.3 nM; in assay [2], 70.2 nM.

For the molecule `NCC1CCN(S(=O)(=O)N2[C@@H]3CC[C@H]2C[C@@H](NC(=O)c2cc(C4CC4)on2)C3)CC1` [compound 830, N-((1R,3r,5S)-8-((4-(aminomethyl)piperidin-1-yl)sulfonyl)-8-azabicyclo[3.2.1]octan-3-yl)-5-cyclopropylisoxazole-3-carboxamide], the IC50 in assay [1] came out at 4.34 nM; in assay [2], 1550 nM.

On to `CC1CN(S(=O)(=O)N2[C@@H]3CC[C@H]2C[C@@H](NC(=O)c2cc(C4CC4)on2)C3)CCC1N` (stereo partly drawn) [compound 831, N-((1R,3r,5S)-8-((4-amino-3-methylpiperidin-1-yl)sulfonyl)-8-azabicyclo[3.2.1]octan-3-yl)-5-cyclopropylisoxazole-3-carboxamide], for which the IC50 turned out to be 4.36 nM in assay [1] and 85.1 nM in assay [2].

Turning to `O=C(N[C@H]1C[C@H]2CC[C@@H](C1)N2S(=O)(=O)N1C2CNCC1C2)c1cc(C2CC2)on1` [compound 832, N-((1R,3r,5S)-8-((3,6-diazabicyclo[3.1.1]heptan-6-yl)sulfonyl)-8-azabicyclo[3.2.1]octan-3-yl)-5-cyclopropylisoxazole-3-carboxamide], the IC50 was found to be 4.38 nM in assay [1] and 134 nM in assay [2].

Consider `CCc1cc(C(=O)N[C@H]2C[C@H]3CC[C@@H](C2)N3S(=O)(=O)[C@H]2CC[C@@H](NCCO)CC2)no1` [compound 833, 5-ethyl-N-((1R,3R,5S)-8-(((1s,4S)-4-((2-hydroxyethyl)amino)cyclohexyl)sulfonyl)-8-azabicyclo[3.2.1]octan-3-yl)isoxazole-3-carboxamide], for which the values for the IC50 in assay [1] and in assay [2] were 4.47 nM and 72.2 nM, respectively.

Regarding `CN(CCCO)C1CCN(S(=O)(=O)N2[C@@H]3CC[C@H]2C[C@@H](NC(=O)c2cc(C4CC4)on2)C3)CC1` [compound 834, 5-cyclopropyl-N-((1R,3r,5S)-8-((4-((3-hydroxypropyl)(methyl)amino)piperidin-1-yl)sulfonyl)-8-azabicyclo[3.2.1]octan-3-yl)isoxazole-3-carboxamide], the IC50 came out at 4.57 nM in assay [1] and 48.7 nM in assay [2].

As to `O=C(N[C@H]1C[C@H]2CC[C@@H](C1)N2S(=O)(=O)N1CCC2(CCCN2)CC1)c1cc(C2CC2)on1` [compound 835, N-((1R,3r,5S)-8-((1,8-diazaspiro[4.5]decan-8-yl)sulfonyl)-8-azabicyclo[3.2.1]octan-3-yl)-5-cyclopropylisoxazole-3-carboxamide], the 50% inhibitory concentration (IC50) in assay [1] came to 4.63 nM; in assay [2] it was 118 nM.

Take `C[C@H]1C[C@@H](NC(=O)c2cc(C3CC3)on2)CCN1S(=O)(=O)C[C@H]1CCC[C@H](N)C1` [compound 836, N-((2S,4S)-1-((((1S,3S)-3-aminocyclohexyl)methyl)sulfonyl)-2-methylpiperidin-4-yl)-5-cyclopropylisoxazole-3-carboxamide]: the results for the IC50 in assay [1] and in assay [2] were 4.64 nM and 89 nM, respectively.

As to `C[C@H]1CN(S(=O)(=O)[C@H]2CC[C@H](N(C)C)CC2)CC[C@H]1NC(=O)c1cc(C2CC2)on1` [compound 837, 5-cyclopropyl-N-((3S,4R)-1-(((1r,4S)-4-(dimethylamino)cyclohexyl)sulfonyl)-3-methylpiperidin-4-yl)isoxazole-3-carboxamide], the IC50 in assay [1] is 4.82 nM; in assay [2], 84.4 nM.

On to `CN(CCCC(F)(F)F)C1CCN(S(=O)(=O)N2[C@@H]3CC[C@H]2C[C@@H](NC(=O)c2cc(C4CC4)on2)C3)CC1` [compound 838, 5-cyclopropyl-N-((1R,3r,5S)-8-((4-(methyl(4,4,4-trifluorobutyl)amino)piperidin-1-yl)sulfonyl)-8-azabicyclo[3.2.1]octan-3-yl)isoxazole-3-carboxamide], for which the results for the IC50 in assay [1] and in assay [2] were 4.9 nM and 52.4 nM, respectively.

As for `C[C@H]1C[C@@H](NC(=O)c2cc(C3CC3)on2)CCN1S(=O)(=O)N1CCC(N(C)Cc2ccccc2)CC1` [compound 839, N-((2S,4S)-1-((4-(benzyl(methyl)amino)piperidin-1-yl)sulfonyl)-2-methylpiperidin-4-yl)-5-cyclopropylisoxazole-3-carboxamide], the IC50 in assay [1] amounted to 4.97 nM; in assay [2] it was 154 nM.

For `O=C(N[C@H]1C[C@H]2CC[C@@H](C1)N2S(=O)(=O)N1CC2CC1CN2)c1cc(C2CC2)on1` [compound 840, N-((1R,3r,5S)-8-((2,5-diazabicyclo[2.2.1]heptan-2-yl)sulfonyl)-8-azabicyclo[3.2.1]octan-3-yl)-5-cyclopropylisoxazole-3-carboxamide], the half-maximal inhibitory concentration (IC50) is 5.01 nM in assay [1] and 56 nM in assay [2].
